Experimental data taken from ChEMBL document CHEMBL6103648, “AI-Driven Discovery of Highly Specific and Efficacious hCES2A Inhibitors for Ameliorating Irinotecan-Triggered Gut Toxicity” (J Med Chem, 2025).
The source made the active and inactive calls. The rule behind the calls is not given here.

Columns and labels:
[1] = Efflux ratio of apparent permeability across basal to apical side over apical to basal side in human Caco-2 cells at 25 uM incubated for 120 mins by UPLC-MS/MS analysis; format: ADME, cell-based
Mus musculus [2] = assay: Inhibition of irinotecan-triggered gut toxicity in C57BL/6J mouse bearing tumor cells assessed as intact structures in colon tissue at 25 to 50 mg/kg/day, po treated for 14 days by H and E staining based analysis; format: functional, organism-based; conditions: dose 25-50 mg/kg/day, time 14.0 day
Mus musculus [3] = assay: Inhibition of irinotecan-triggered gut toxicity in C57BL/6J mouse bearing tumor cells assessed as decrease in serum ALT level at 25 to 50 mg/kg/day, po treated for 14 days; format: functional, organism-based; conditions: dose 25-50 mg/kg/day, time 14.0 day
Mus musculus [4] = assay: Inhibition of irinotecan-triggered gut toxicity in C57BL/6J mouse bearing tumor cells assessed as decrease in serum AST level at 25 to 50 mg/kg/day, po treated for 14 days; format: functional, organism-based; conditions: dose 25-50 mg/kg/day, time 14.0 day
[5] = (§1) Inhibition of CES2A in human HepG2 cells using NCEN as substrate assessed as decrease in green fluorescence preincubated fir 1 hr followed by substrate addition measured after 45 mins by Hoechst33342 staining based analysis; format: cell-based
HepG2 = assay: as §1; format: cell-based; conditions: time 105.0 min
Mus musculus [6] = assay: Inhibition of irinotecan-induced anti-tumor activity in C57BL/6J mouse bearing tumor cells assessed as increase in tumor weight at 25 to 50 mg/kg/day, po treated for 14 days; format: functional, organism-based; conditions: dose 25-50 mg/kg/day, time 14.0 day
Homo sapiens [7] = organism: Homo sapiens; assay: Inhibition of human CES2A assessed as decrease in residual activity measured upto 30 mins; conditions: dose <= 1.6 nM
Mus musculus [8] = assay: Inhibition of irinotecan-triggered gut toxicity in C57BL/6J mouse bearing tumor cells assessed as increase in colonic length at 25 to 50 mg/kg/day, po treated for 14 days; format: functional, organism-based; conditions: dose 25-50 mg/kg/day, time 14.0 day
[9] = Permeability across basal to apical side in human Caco-2 cells assessed as cumulative penetration amount at 50 uM incubated for 120 mins by UPLC-MS/MS analysis; format: ADME, cell-based; conditions: caco-2, 2 h
[10] = Drug distribution in stomach of C57BL/6J mouse at 100 mg/kg, po administered as single dose measured for 0.5 to 3 hrs by UHPLC-Q-Orbitrap HRMS analysis; format: ADME, organism-based; conditions: in vivo, time 0.5-3 hrs
[11] = Apparent permeability across basal to apical side in human Caco-2 cells at 25 uM incubated for 120 mins by UPLC-MS/MS analysis; format: ADME, cell-based
Mus musculus [12] = assay: Inhibition of irinotecan-triggered gut toxicity in C57BL/6J mouse bearing tumor cells assessed as increase in ZO-1 level in colon tissue at 25 to 50 mg/kg/day, po treated for 14 days by immunofluorescence based analysis; format: functional, organism-based; conditions: dose 25-50 mg/kg/day, time 14.0 day
[13] = Permeability across basal to apical side in human Caco-2 cells assessed as cumulative penetration amount at 25 uM incubated for 120 mins by UPLC-MS/MS analysis; format: ADME, cell-based; conditions: caco-2, 2 h
Cytochrome P450 2E1 = Cytochrome P450 2E1 (Homo sapiens, UniProt P05181); assay: Inhibition of CYP2E1 in human liver microsomes using chlorzoxazone as substrate upto 10 uM; format: ADME, Microsome
[14] = Inhibition of human CES2A incubated for 33 mins
[15] = Chemical stability in artificial gastrointestinal fluid at 10 uM measured upto 120 mins by UPLC-MS/MS analysis; format: physicochemical; conditions: 2 h
[16] = Permeability across apical to basal side in human Caco-2 cells assessed as cumulative penetration amount at 25 uM incubated for 120 mins by UPLC-MS/MS analysis; format: ADME, cell-based; conditions: caco-2, 2 h
Cytochrome P450 2D6 = Cytochrome P450 2D6 (Homo sapiens, UniProt P10635); assay: Inhibition of CYP2D6 in human liver microsomes using dextromethorphan as substrate upto 10 uM; format: ADME, Microsome
[17] = Inhibition of human CES2A incubated for 3 mins
Caco-2 = assay: Cytotoxicity against human Caco-2 cells at 100 uM incubated for 24 hrs by CCK8 assay; format: toxicity, cell-based; conditions: caco-2, 24 h
Cytochrome P450 3A4 = Cytochrome P450 3A4 (Homo sapiens, UniProt P08684); assay: Inhibition of CYP3A4 in human liver microsomes using testosterone as substrate upto 10 uM; format: ADME, Microsome
[18] = Apparent permeability across apical to basal side in human Caco-2 cells at 100 uM incubated for 120 mins by UPLC-MS/MS analysis; format: ADME, cell-based
[19] = Drug distribution in colon of C57BL/6J mouse at 100 mg/kg, po administered as single dose measured for 0.5 to 3 hrs by UHPLC-Q-Orbitrap HRMS analysis; format: ADME, organism-based; conditions: in vivo, time 0.5-3 hrs
Homo sapiens [20] = organism: Homo sapiens; assay: Inhibition of human CES2A assessed as decrease in residual activity upto 1.6 nM; conditions: time <= 30.0 min
[21] = Sub-acute toxicity in C57BL/6J mouse assessed as body weight change at 100 mg/kg/day, po treated for 14 days consecutively; format: organism-based; conditions: in vivo, 336 h, time 14 day
Cytochrome P450 2C8 = target: T1, Cytochrome P450 2C8 (Homo sapiens, UniProt P10632); assay: Inhibition of CYP2C8 in human liver microsomes using paclitaxel as substrate upto 10 uM; format: ADME, Microsome
T1 sequence (P10632 whole entry): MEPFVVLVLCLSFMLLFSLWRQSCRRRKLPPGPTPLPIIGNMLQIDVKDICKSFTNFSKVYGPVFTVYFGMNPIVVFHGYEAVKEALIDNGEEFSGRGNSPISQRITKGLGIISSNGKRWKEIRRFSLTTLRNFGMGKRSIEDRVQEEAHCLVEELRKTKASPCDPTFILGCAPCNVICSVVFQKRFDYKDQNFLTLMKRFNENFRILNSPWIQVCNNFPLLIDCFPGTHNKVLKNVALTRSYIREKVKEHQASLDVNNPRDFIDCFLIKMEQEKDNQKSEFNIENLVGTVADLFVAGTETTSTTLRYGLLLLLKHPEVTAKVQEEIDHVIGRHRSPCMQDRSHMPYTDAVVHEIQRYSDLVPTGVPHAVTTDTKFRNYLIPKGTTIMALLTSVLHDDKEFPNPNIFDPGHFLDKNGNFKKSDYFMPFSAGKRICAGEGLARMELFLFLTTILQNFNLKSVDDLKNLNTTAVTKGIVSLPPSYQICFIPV

Chain of Cytochrome P450 2D6 (P10635 whole entry): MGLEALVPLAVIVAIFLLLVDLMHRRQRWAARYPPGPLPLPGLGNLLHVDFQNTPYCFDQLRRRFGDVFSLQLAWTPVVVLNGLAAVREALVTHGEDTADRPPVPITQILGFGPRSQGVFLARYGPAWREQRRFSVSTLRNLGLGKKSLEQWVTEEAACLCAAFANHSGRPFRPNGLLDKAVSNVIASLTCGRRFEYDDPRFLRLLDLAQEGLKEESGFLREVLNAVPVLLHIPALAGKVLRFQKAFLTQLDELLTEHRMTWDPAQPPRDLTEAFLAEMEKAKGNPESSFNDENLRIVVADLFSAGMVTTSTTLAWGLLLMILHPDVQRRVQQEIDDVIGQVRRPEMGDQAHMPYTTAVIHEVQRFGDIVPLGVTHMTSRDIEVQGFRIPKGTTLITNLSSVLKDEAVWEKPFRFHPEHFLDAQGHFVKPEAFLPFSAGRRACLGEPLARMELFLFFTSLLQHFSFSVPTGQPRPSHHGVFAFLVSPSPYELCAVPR
Chain of Cytochrome P450 3A4 (P08684 whole entry): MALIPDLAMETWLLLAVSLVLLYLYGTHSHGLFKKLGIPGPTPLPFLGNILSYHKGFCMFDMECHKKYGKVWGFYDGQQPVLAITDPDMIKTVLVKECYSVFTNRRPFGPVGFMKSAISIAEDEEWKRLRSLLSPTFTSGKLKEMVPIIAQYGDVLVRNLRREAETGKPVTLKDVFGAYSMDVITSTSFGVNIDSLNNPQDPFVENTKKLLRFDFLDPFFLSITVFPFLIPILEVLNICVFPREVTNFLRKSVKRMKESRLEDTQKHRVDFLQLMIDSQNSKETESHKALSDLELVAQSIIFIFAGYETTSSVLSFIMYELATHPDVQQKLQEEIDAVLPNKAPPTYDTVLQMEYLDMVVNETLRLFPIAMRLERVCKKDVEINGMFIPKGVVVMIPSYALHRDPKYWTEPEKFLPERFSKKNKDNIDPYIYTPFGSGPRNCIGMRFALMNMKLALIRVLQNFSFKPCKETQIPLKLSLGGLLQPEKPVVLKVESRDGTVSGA
Chain of Cytochrome P450 2E1 (P05181 whole entry): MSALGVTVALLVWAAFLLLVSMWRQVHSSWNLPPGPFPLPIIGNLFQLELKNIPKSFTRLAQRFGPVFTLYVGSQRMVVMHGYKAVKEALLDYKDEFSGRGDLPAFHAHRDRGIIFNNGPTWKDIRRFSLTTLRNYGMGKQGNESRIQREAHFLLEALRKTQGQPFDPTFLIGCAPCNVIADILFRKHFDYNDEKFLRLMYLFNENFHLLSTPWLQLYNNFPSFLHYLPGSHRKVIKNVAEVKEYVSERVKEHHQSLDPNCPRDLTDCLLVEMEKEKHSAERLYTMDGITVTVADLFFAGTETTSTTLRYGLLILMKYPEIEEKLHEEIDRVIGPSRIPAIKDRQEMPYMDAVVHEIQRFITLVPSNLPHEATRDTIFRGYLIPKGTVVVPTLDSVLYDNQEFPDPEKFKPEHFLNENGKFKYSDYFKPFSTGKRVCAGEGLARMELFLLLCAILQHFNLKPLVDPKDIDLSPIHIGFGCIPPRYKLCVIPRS

CCN(C)C(=O)Oc1ccc(C(=O)N2CCC(Cc3ccccc3)CC2)cc1OC
efflux ratio at 2 h, 25 µM [1]: 0.64
inhibition (Mus musculus [2]): Active
inhibition (Mus musculus [3]): Active
inhibition (Mus musculus [4]): Active
IC50 [5]: 0.36 nM
inhibition (HepG2): Dose-dependent-effect
inhibition (Mus musculus [6]): inactive
inhibition (Homo sapiens [7]): Dose-dependent-effect
inhibition (Mus musculus [8]): Active
Activity [9]: 4.23 µM
Drug uptake [10]: Active
Papp B→A at 2 h, 25 µM [11]: 101 nm/s
inhibition (Mus musculus [12]): Active
Activity [13]: 2.03 µM
inhibition (INH) (Cytochrome P450 2E1): Not_active
IC50 [14]: 0.04 nM
Stability [15]: Stable
Activity [16]: 3.17 µM
inhibition (INH) (Cytochrome P450 2D6): Not_active
IC50 [17]: 0.69 nM
Activity (Caco-2): Non-toxic
inhibition (INH) (Cytochrome P450 3A4): Not_active
Papp A→B at 2 h, 100 µM [18]: 117 nm/s
Drug uptake [19]: Active
inhibition (Homo sapiens [20]): Time-dependent-effect
Activity [21]: Non-toxic
inhibition (INH) (Cytochrome P450 2C8): Not_active
